From US20260263506A1, “CORNEAL DISORDER TREATMENT AGENT” (M'S SCIENCE CORPORATION, priority 2022, published 2026)
Marks after values point to notes of the source that are not given here.

How the values were obtained:
[1] = system: HCE-T (immortalized human corneal epithelial) cells; test: HCE-T cell migration assay, Calcein-AM fluorescence of cells migrated into the stopper zone; format: cell-based; conditions: for Relative fluorescence intensity (%): no-addition control = 100%; for Effect on migration of human corneal epithelial cells (in words): summary statement from both analysis methods
Method: (§1) HCE-T (immortalized human corneal epithelial) cells [isolated and established from human corneal epithelia; obtained from RIKEN Cell Bank] were cultured in DMEM/F12 medium supplemented with 5% fetal bovine serum in a CO2 incubator at 37° C.
(§2) HCE-T cells grown to 60%-80% confluency in a T75 flask were detached with trypsin-EDTA and collected. The collected cells were suspended in fresh DMEM/F12 medium supplemented with fetal bovine serum.
(§3) From this cell suspension, 60,000 cells per well were seeded in a 96-well multiwell-plate, in which each well was fitted with a cell seeding stopper.
(§4) After the plate was incubated overnight at 37° C. in a CO 2 incubator, the cell stoppers were removed, and the cells were washed twice with a serum-free medium. Then, the medium was replaced by a serum-free medium supplemented with the test substance or a control serum-free medium devoid of the test substance, and the cells were cultured for 28 hours.
(§5) The serum-free medium with the test substance used was a medium containing fondaparinux sodium [obtained from Selleck] at a concentration of 0.1% (w/v) or 0.3% (w/v) or a medium containing 0.5% (w/v) sodium chondroitin sulfate (obtained from Tokyo Chemical Industry; average molecular weight, ~30,000).
(§6) The cultured cells were stained with Calcein-AM (obtained from nacalai tesque), and the fluorescence emitted from HCE-T cells that migrated to the zone where the stopper was placed was measured. After the fluorescence intensity was measured, fluorescence microscopic images were acquired and analyzed using a BZ-X analyzer to measure cell migration areas.
A relative fluorescence intensity value is a fluorescence intensity measurement for each test substance group expressed in percentage in reference to the fluorescence intensity of the no-addition group (control) as 100%, indicating the relative level of cell migration compared to the control.
(§7) As in Experiment 1, HCE-T (immortalized human corneal epithelial) cells were used to investigate the effects of test substances on the migration of HCE-T cells. The test substances used were fondaparinux sodium, high-molecular-weight sodium hyaluronate (average molecular weight 887,000), sodium heparan sulfate (average molecular weight 23,000), and low molecular weight heparin (average molecular weight 5,400). Among these test substances, fondaparinux sodium was obtained from Selleck as described above, and all other glycosaminoglycans were obtained from Iwai Chemicals Company. The concentration of each test substance was 0.3% (w/v).

[2] = system: HCE-T (immortalized human corneal epithelial) cells; test: HCE-T cell migration assay, cell migration area from fluorescence microscopic images (BZ-X analyzer); format: cell-based; conditions: for Relative cell migration area (%): no-addition control = 100%
Method: as §1, §2, §3, §4, §5, §6
The cell migration areas were calculated (measured) through analysis of images acquired with a fluorescence microscope and were used to calculate areas relative to the no-addition control group (relative migration areas).
A relative migration area value is a relative cell migration area for each test substance group expressed in percentage in reference to the cell migration area of the no-addition control group as 100%.
as §7

[3] = Experiment 1, 0.1% (w/v), serum-free medium, 28 hours, mean and standard error of 3 measurements
[4] = Experiment 1, 0.3% (w/v), serum-free medium, 28 hours, mean and standard error of 3 measurements
[5] = Experiment 2, 0.3% (w/v), as in Experiment 1
[6] = Experiment 2, 0.3% (w/v), mean and standard error of 4 measurements
[7] = Experiment 1, 0.5% (w/v), serum-free medium, 28 hours, mean and standard error of 3 measurements

Row | Compound | Relative fluorescence intensity (%) ([1]; Experiment 1, 0.1% (w/v), 28 hours, n=3) | Fluorescence intensity [1, 3] | Relative fluorescence intensity (%) ([1]; Experiment 1, 0.3% (w/v), 28 hours, n=3) | Fluorescence intensity [1, 4] | Fluorescence intensity [1, 5] | Relative fluorescence intensity (%) ([1]; Experiment 2, 0.3% (w/v)) | Effect on migration of human corneal epithelial cells (in words) ([1]; listed as fondaparinux sodium, sodium salt) | Effect on migration of human corneal epithelial cells (in words) ([1]; listed as fondaparinux, sodium salt) | Relative cell migration area (%) ([2]; Experiment 1, 0.1% (w/v), n=3) | Cell migration area (10^4 μm^2) [2, 3] | Relative cell migration area (%) ([2]; Experiment 1, 0.3% (w/v), n=3) | Cell migration area (10^4 μm^2) [2, 4] | Cell migration area (10^4 μm^2) [2, 6] | Relative cell migration area (%) ([2]; Experiment 2, 0.3% (w/v), n=4) | Effect on migration of human corneal epithelial cells (in words) [1] | Relative fluorescence intensity (%) ([1]; Experiment 1, 0.5% (w/v), 28 hours, n=3) | Fluorescence intensity [1, 7] | Relative cell migration area (%) ([2]; Experiment 1, 0.5% (w/v), n=3) | Cell migration area (10^4 μm^2) [2, 7]
1 | CO[C@H]1OC(COS(=O)(=O)[O-])[C@@H](O[C@@H]2OC(C(=O)[O-])[C@@H](O[C@H]3OC(COS(=O)(=O)[O-])[C@@H](O[C@@H]4OC(C(=O)[O-])[C@@H](O[C@H]5OC(COS(=O)(=O)[O-])[C@@H](O)C(O)C5NS(=O)(=O)[O-])C(O)C4O)C(OS(=O)(=O)[O-])C3NS(=O)(=O)[O-])C(O)C2OS(=O)(=O)[O-])C(O)C1NS(=O)(=O)[O-].[Na+].[Na+].[Na+].[Na+].[Na+].[Na+].[Na+].[Na+].[Na+].[Na+] (stereo partly drawn) [Fondaparinux sodium, methyl O-(2-deoxy-6-O-sulfo-2-sulfoamino-α-D-glucopyranosyl)-(1→4)-O-(β-D-glucopyranosyluronic acid)-(1→4)-O-(2-deoxy-3,6-di-O-sulfo-2-sulfoamino-α-D-glucopyranosyl)-(1→4)-O-(2-O-sulfo-α-L-idopyranosyluronic acid)-(1→4)-2-deoxy-6-O-sulfo-2-sulfoamino-α-D-glucopyranoside sodium salt] | 145.41 ± 10.19% | 0.183 ± 0.013 | 170.1 ± 2.84 % | 0.215 ± 0.004 | 0.290 ± 0.028 | 237.36 ± 22.53 % | promoted migration and stretching of human corneal epithelial cells | strong stimulatory effect | 160.5 ± 6.6% | 102.1 ± 4.2 10^4 μm^2 | 168.4 ± 5.1 % | 107.1 ± 3.2* 10^4 μm^2 | 65.9 ± 6.4 10^4 μm^2 | 169.4 ± 16.4% | – | – | – | – | –
2 | Low molecular weight heparin | – | – | – | – | 0.359 ± 0.083 | 293.94 ± 68.25% | – | – | – | – | – | – | 78.4 ± 12.3* 10^4 μm^2 | 201.6 ± 31.6 % | strong stimulatory effect | – | – | – | –
3 | Sodium chondroitin sulfate | – | – | – | – | – | – | – | – | – | – | – | – | – | – | – | 89.20 ± 23.97% | 0.112 ± 0.030 | 103.9 ± 18.0% | 66.1 ± 1.1 10^4 μm^2
4 | High-molecular-weight sodium hyaluronate | – | – | – | – | 0.176 ± 0.028 | 143.67 ± 22.72% | – | – | – | – | – | – | 50.9 ± 17.4 10^4 μm^2 | 130.9 ± 4.5% | – | – | – | – | –
